Laboratory results: US20240043661A1, “CYCLODEXTRIN DIMERS AND USES THEREOF” (UNDERDOG PHARMACEUTICALS, INC., priority 2020, published 2024)

How the values were obtained:
[1] = In vitro solubility assay (turbidity assay) with cholesterol; format: physicochemical; settings: 300 μM sterol, 3% ethanol in PBS, 30 mins at 37C, absorbance at 350 nm
Method: (§1) Greater affinity for one compound than another, e.g., greater affinity for 7KC than cholesterol, may be determined using a “turbidity test” performed on an aqueous suspension containing 3% ethanol, 300 uM sterol, in PBS and 1 mM of the CD to be tested. This single concentration of CD is used in order to standardize the test results. To perform the test, the samples are incubated for 30 mins at 37C, and then absorbance at 350 nm is measured, e.g., using a spectrophotometer plate reader. Relative turbidity is determined by dividing the measured turbidity in the presence of the CD to the baseline turbidity without the CD. A given CD has greater affinity for 7KC than cholesterol if the relative turbidity of the 7KC suspension is lower than the relative turbidity of the cholesterol solution.
(§2) Sterol stock solutions (including cholesterol and 7KC) were suspended in 100% ethanol. Final concentration of suspensions: 3% ethanol, 300 μM sterol, in PBS with various concentrations of CDs.

[2] = In vitro solubility assay (turbidity assay) with 7KC; format: physicochemical; settings: 300 μM sterol, 3% ethanol in PBS, 30 mins at 37C, absorbance at 350 nm
Method: as §1, §2

OC[C@H]1O[C@@H]2O[C@H]3[C@H](O)[C@@H](O)[C@@H](O[C@H]4[C@H](O)[C@@H](O)[C@@H](O[C@H]5[C@H](O)[C@@H](O)[C@@H](O[C@H]6[C@H](O)[C@@H](O)[C@@H](O[C@H]7[C@H](O)[C@@H](O)[C@@H](O[C@H]1[C@H](O)[C@H]2O)O[C@@H]7CO)O[C@@H]6CO)O[C@@H]5CO)O[C@@H]4CO)O[C@@H]3CO [native αCD]
solubilization / binding of cholesterol (turbidity) [1]: low affinity for 7KC and cholesterol | solubilization / binding of 7KC (turbidity) [2]: low affinity for 7KC and cholesterol | specificity for 7KC over cholesterol (turbidity) [2]: no specificity
